# Test results: patent US20080152736A1, “Lipid Fraction of Nigella Sativa L. Seeds” (priority 2004, published 2008)
# Legend:
# Corynebacterium pyogenes = assay: In vitro antimicrobial comparison, bore method (zone of inhibition); assay type: cell-based; conditions: Ampicillin 1: g/mg; mean ± S.E. of 4 observations
# Experimental: (§1) The comparative antibacterial activity of ampicillin (1 microg/mg) and the Nigella sativa L. lipid fraction (1 mg/ml) against Staphylococcus pyogenes, Corynebacterium pyogenes and Salmonella typhi murium was performed in vitro using the bore method described by Cooper and Woodman (1964).
# Salmonella typhi murium = assay: as above; assay type: cell-based; conditions: Ampicillin 1: g/mg; mean ± S.E. of 4 observations
# Experimental: as §1
# Staphylococcus pyogenes = assay: as above; assay type: cell-based; conditions: Ampicillin 1: g/mg; mean ± S.E. of 4 observations
# Experimental: as §1
# [1] = tested on: guinea pigs exposed to histamine aerosol (0.25%); assay: Prophylactic anti-asthmatic effect, preconvulsive time on histamine aerosol; assay type: in vivo; conditions: ketotifen 50: g/kg, treated for 21 days; histamine (0.25%) aerosol
# Experimental: This example explains in vivo studies to evaluate the prophylactic (protective) anti-asthmatic effect of the Nigella sativa L. lipid fraction of the present invention. The prophylactic anti-asthmatic effect was evaluated in vivo by measurement of the preconvulsive time in guinea pigs exposed to histamine aerosol (0.25%).
# Guinea pigs were divided into three groups with 8 animals per group. The first group received saline with injection to serve as negative control. The second group received ketotifen, which is the standard treatment to serve as positive control. The third group received 200 mg/kg each of the Nigella sativa L. lipid fraction of the present invention.
# Animals in all groups were treated for 21 days following, after which they were exposed to histamine (0.25%) aerosol and the preconvulsive time was recorded.
# [2] = tested on: sensitized guinea pigs exposed to ova albumin inhalation; assay: Tachypnea protective effect in ova albumin sensitized animals; assay type: in vivo; conditions: ketotifen 50: g/kg, treated for 21 days
# Experimental: This experiment was an in vivo study to evaluate the tachypnea (protective) effect of the Nigella sativa L. lipid fraction of the present invention. The second protocol involved sensitized animals. Animals were sensitized by injecting ova albumin in two doses 100 mg each (S.C. and I.P., simultaneously). Animals were resensitized 15 days later. Guinea pigs were divided into three groups with 8 animals per group. The first group received a saline injection to serve as negative control. The second group received ketotifen which is the standard treatment to serve as positive control. The third group received 200 mg/kg each of the Nigella sativa L. lipid fraction of the present invention. Animals in all groups were treated for 21 days following which they were exposed to ova albumin inhalation and time to onset of tachypnea was recorded as shown in the table below.
# [3] = 16 published human studies, total of 590 subjects; cited from earlier work
compound,measurement,setting,value
"CC1(C)S[C@@H]2[C@H](NC(=O)[C@H](N)c3ccccc3)C(=O)N2[C@H]1C(=O)O [Ampicillin, ampicillin]",Diameter of Zone of inhibition,Corynebacterium pyogenes,44.7 ± 0.8 mm
same,Diameter of Zone of inhibition,Salmonella typhi murium,13.1 ± 0.2 mm
same,Diameter of Zone of inhibition,Staphylococcus pyogenes,26.7 ± 0.3 mm
CN1CCC(=C2c3ccccc3CC(=O)c3sccc32)CC1 [ketotifen],% of Prophylaxis (Protection),[1],82.85%
same,% of Prophylaxis,[2],44.4%
phytosterol,average reduction in total cholesterol,[3],10%
same,reduction in LDL cholesterol levels,[3],13%
